{
  "source": "patent US11338040B2",
  "about": "“Immunomodulatory compounds” (Leidos, Inc., priority 2020, dated 2022)",
  "key": {"[1]": {"experiment": "Precipitation on dilution in assay buffer", "type": "physicochemical", "settings": "100 μM final in assay buffer", "description": "FIG. 1 is a graph reporting the results of a TR-FRET assay testing the ability of peptide conjugates and individual peptides to affect the interaction between LAG3 and MHC-II. * indicates precipitation when diluted in assay buffer at 1 mM (100 μM final)."}, "[2]": {"target": "T1, interaction between LAG3 and MHC-II (Homo sapiens, UniProt P18627)", "T1 construct": "purchased Cisbio US Inc", "T1 sequence (P18627 23-450 limits assumed)": "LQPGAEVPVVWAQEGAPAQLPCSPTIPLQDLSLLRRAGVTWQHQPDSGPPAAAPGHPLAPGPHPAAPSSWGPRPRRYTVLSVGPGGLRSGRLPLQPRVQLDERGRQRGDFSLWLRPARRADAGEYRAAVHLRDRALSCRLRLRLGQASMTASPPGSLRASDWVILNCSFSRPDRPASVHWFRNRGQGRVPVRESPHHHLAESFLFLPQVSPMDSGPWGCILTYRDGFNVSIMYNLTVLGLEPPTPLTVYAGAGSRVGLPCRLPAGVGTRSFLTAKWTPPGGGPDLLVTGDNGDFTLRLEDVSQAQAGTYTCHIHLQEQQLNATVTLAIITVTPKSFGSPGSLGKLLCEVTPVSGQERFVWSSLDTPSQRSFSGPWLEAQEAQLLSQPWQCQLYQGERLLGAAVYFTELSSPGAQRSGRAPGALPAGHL", "experiment": "HTRF (TR-FRET) LAG3/MHC-II binding assay", "settings": "for response in dilution curve (HTRF signal): 10-fold dilutions starting at 100 μM or 10 μM, FIGS. 2A-9B; for effect on HTRF signal: tested at 100 μM, 10 μM, and 1 μM, FIG. 1", "text": "A Homogeneous Time-resolved Fluorescence (HTRF) LAG3/MHC-II binding assay (Cisbio US Inc.) was used to measure the interaction between MHC-II and LAG3 in the presence of various peptides and peptide conjugates. In this assay, the interaction between Tag1-LAG3 and Tag2-MHC-II is detected by using anti-Tag1-Terbium (HTRF donor) and anti-Tag2-XL665 (HTRF acceptor). When the donor and acceptor antibodies are brought into close proximity due to LAG3 and MHC-II binding, excitation of the donor antibody triggers fluorescent resonance energy transfer (FRET) towards the acceptor antibody, which in turn emits specifically at 665 nm. This specific signal is directly proportional to the extent of LAG3/MHC-II interaction. Thus, an agent that blocks the interaction between LAG3 and MHC-II will cause a reduction in HTRF ratio.\nEach of peptide conjugates BT1, BT2, BT3, BT4, BT5, BT6, BT7, BT8, BT9, and peptides LG11 (LAG3-11), LAG3-56 (SEQ ID NO:5), and LAG3-42 (SEQ ID NO:6) was tested at 3 concentrations: 100 μM, 10 μM, and 1 μM. The dashed-lines represent the HTRF ratio readout of a control ovalbumin peptide (OVA, SEQ ID NO:7) (baseline) at the respective concentrations.\npeptide conjugates and LG peptides were tested in full dilution curves in the LAG3:MHCII TR-FRET Assay described above to estimate IC50. peptide conjugates were tested starting at 100 μM or 10 μM. LG peptides were tested starting at 100 μM."}, "PD1": {"target": "T2, PD1 (Homo sapiens, UniProt Q15116)", "T2 construct": "expressed in transfected cells; host or cells: Jurkat cells (PD1-EFC and SHP1-EFC) co-cultured with PDL1-presenting U2OS cells", "T2 sequence (Q15116 25-288)": "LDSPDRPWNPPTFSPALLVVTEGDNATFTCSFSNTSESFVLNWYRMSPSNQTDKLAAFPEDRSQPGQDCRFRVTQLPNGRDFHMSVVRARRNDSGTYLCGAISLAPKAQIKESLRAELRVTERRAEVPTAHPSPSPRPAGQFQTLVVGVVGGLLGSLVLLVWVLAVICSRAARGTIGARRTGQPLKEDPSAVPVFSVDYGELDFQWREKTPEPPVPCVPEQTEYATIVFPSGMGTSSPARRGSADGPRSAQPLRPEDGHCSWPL", "experiment": "PD1/PDL1 cell reporter assay (PathHunter, Jurkat PD1/SHP1 EFC cells co-incubated with PDL1-presenting U2OS cells)", "type": "cell-based", "settings": "peptide conjugates at 3.6 μM, 10.8 μM, 32.5 μM in triplicate; FIG. 10", "description": "Jurkat cells expressing PD1 and SHP1 proteins, each fused to a fragment of enzyme fragment complementation (EFC) system, were co-incubated with PDL1-presenting U2OS cells. […] Cells in co-culture were incubated at room temperature (RT) for 2 h (PD1 assay). The assay signal was generated using the PathHunter Bioassay Detection kit. Microplates were read following signal generation using a PerkinElmer ENVISION™ instrument for chemiluminescent signal detection. Inhibitory peptides or antibodies added to the culture result in reduction of light signal. The degree of inhibition was calculated using the following formula: Percent inhibition=100%×[1−(mean RLU of test sample−mean RLU of vehicle control)/mean RLU of EC80 control−mean RLU of vehicle control)].\nPeptide conjugates BT1-BT11 were tested at three concentrations: 3.6 μM, 10.8 μM, 32.5 μM in triplicate wells. peptide conjugates were dissolved in DMSO and serially diluted in assay buffer. The highest concentration that can be tested in this assay was 32.5 μM peptide conjugate (1% DMSO).\nPeptides LD12 (SEQ ID NO:9), LD10 (SEQ ID NO:1), and LD16 (SEQ ID NO:10) were tested at three concentrations: 11 μM, 33 μM, 100 μM in triplicate. LD peptides were dissolved in water and serially diluted in assay buffer. RLUs were measured at the end of the assay, and % Inhibition (% Efficiency) was calculated using the formula above."}},
  "note": "Non-standard residues stand in square brackets, D forms with d. Residues, ends and D or L forms follow the SMILES beside them. PEG4 = NCCOCCOCCOCCOCCC(=O)O",
  "data": [
    {"smiles": "CC[C@H](C)[C@H](NC(=O)[C@H](CCC(N)=O)NC(=O)CNC(=O)[C@@H](NC(=O)[C@@H](CO)NC(=O)CCOCCOCCOCCOCCNC(=O)[C@H](Cc1c[nH]c2ccccc12)NC(=O)[C@H](CCC(=O)O)NC(=O)CNC(=O)[C@@H](NC(=O)CNC(=O)[C@H](CCC(N)=O)NC(=O)[C@H](Cc1c[nH]c2ccccc12)NC(=O)[C@H](Cc1c[nH]c2ccccc12)NC(=O)[C@H](CC(=O)O)NC(=O)[C@H](CCC(=O)O)NC(=O)[C@@H]1CCCN1C(=O)[C@H](Cc1c[nH]c2ccccc12)NC(=O)[C@H](Cc1c[nH]cn1)NC(=O)[C@H](CC(C)C)NC(=O)[C@@H]1CCCN1C(=O)[C@H](CCC(=O)O)NC(=O)[C@H](Cc1c[nH]c2ccccc12)NC(=O)[C@@H]1CCCN1C(=O)[C@H](C)NC(=O)[C@@H](N)CO)[C@@H](C)O)[C@@H](C)O)C(=O)N[C@@H](CO)C(=O)N[C@H](C(=O)N[C@@H](CC(C)C)C(=O)N[C@@H](CCCNC(=N)N)C(=O)N[C@H](C(=O)N[C@@H](CC(N)=O)C(=O)N[C@H](C(=O)N[C@H](C(=O)N[C@@H](C)C(=O)N1CCC[C@H]1C(=O)N[C@@H](CC(C)C)C(=O)N[C@@H](CO)C(=O)N[C@@H](CCC(N)=O)C(N)=O)[C@@H](C)O)[C@@H](C)CC)C(C)C)[C@@H](C)O", "note": "[BT2]", "values": [
      {"measurement": "precipitation in assay buffer", "setting": "[1]", "value": "precipitation occurred at 100 μM"},
      {"measurement": "response in dilution curve (HTRF signal)", "setting": "[2]", "value": "reduced the HTRF signal at 10 μM"},
      {"measurement": "IC50", "setting": "[2]; LAG3:MHCII TR-FRET full dilution curves", "value": 8.44, "unit": "µM"},
      {"measurement": "effect on HTRF signal", "setting": "[2]", "value": "reduced the HTRF signal"},
      {"measurement": "inhibition of PD1 activity (percent inhibition of light signal)", "setting": "PD1", "value": "did not show inhibition at any of the tested concentrations"}
    ]},
    {"smiles": "CC[C@H](C)[C@H](NC(=O)[C@H](CO)NC(=O)[C@@H](NC(=O)[C@H](CC(C)C)NC(=O)[C@H](CCCNC(=N)N)NC(=O)[C@@H](NC(=O)[C@H](CC(N)=O)NC(=O)[C@@H](NC(=O)[C@@H](NC(=O)[C@H](C)NC(=O)[C@@H]1CCCN1C(=O)[C@H](CC(C)C)NC(=O)[C@H](CO)NC(=O)[C@H](CCC(N)=O)NC(=O)CCOCCOCCOCCOCCNC(=O)[C@H](Cc1c[nH]c2ccccc12)NC(=O)[C@H](CCC(=O)O)NC(=O)CNC(=O)[C@@H](NC(=O)CNC(=O)[C@H](CCC(N)=O)NC(=O)[C@H](Cc1c[nH]c2ccccc12)NC(=O)[C@H](Cc1c[nH]c2ccccc12)NC(=O)[C@H](CC(=O)O)NC(=O)[C@H](CCC(=O)O)NC(=O)[C@@H]1CCCN1C(=O)[C@H](Cc1c[nH]c2ccccc12)NC(=O)[C@H](Cc1c[nH]cn1)NC(=O)[C@H](CC(C)C)NC(=O)[C@@H]1CCCN1C(=O)[C@H](CCC(=O)O)NC(=O)[C@H](Cc1c[nH]c2ccccc12)NC(=O)[C@@H]1CCCN1C(=O)[C@H](C)NC(=O)[C@@H](N)CO)[C@@H](C)O)[C@@H](C)O)[C@@H](C)CC)C(C)C)[C@@H](C)O)C(=O)N[C@@H](CCC(N)=O)C(=O)NCC(=O)N[C@H](C(=O)N[C@H](CO)C(N)=O)[C@@H](C)O", "note": "[BT4] (H-SAPWEPLHWPEDWWQGTGEW[PEG4]QSLPATINVRLTSIQGT[dS]-NH2)", "values": [
      {"measurement": "precipitation in assay buffer", "setting": "[1]", "value": "precipitation occurred at 100 μM"},
      {"measurement": "response in dilution curve (HTRF signal)", "setting": "[2]", "value": "reduced the HTRF signal at 10 μM"},
      {"measurement": "effect on HTRF signal", "setting": "[2]", "value": "reduced the HTRF signal"},
      {"measurement": "inhibition of PD1 activity (percent inhibition of light signal)", "setting": "PD1", "value": "did not show inhibition at any of the tested concentrations"}
    ]}
  ]
}
